Measured values reported in patent publication US8569245B2, “Protease inhibitors, compositions and methods of use” (University of Florida Research Foundation, Inc., priority 2009, dated 2013).
Starred links: 1 amine or outer side, 2 acyl side, 3 side chain; linkers in the order of their positions; H or OH if unused. Non-standard residues stand in square brackets, D forms with d. Residues, ends and D or L forms follow the SMILES beside them. *: point of attachment. Sta = CC(C)C[C@H](N)[C@@H](O)CC(=O)O; X2 = CC(C)CC(N[*:1])C(O)CC(=O)[*:2]; NMe2Val = CC(C)[C@@H](C(=O)*)N(C)C; dNMeF = CN[C@H](Cc1ccccc1)C(=O)O; NMeF = CN[CH](Cc1ccccc1)C(=O)O; NMeQ = CN[CH](CCC(N)=O)C(=O)O; dHiv = CC(C)[C@@H](O)C(=O)O; Hiv = CC(C)[C@H](O)C(=O)O; Isovaleryl = CC(C)CC(=O)*; X1 = CCC(C)C(O)C(=O)*

Experiments:
[1] = tested on: human peripheral blood mononuclear cells (PBMCs); experiment: Antigen-stimulated T cell proliferation in PBMCs (flow cytometry, CD3+ gate); assay type: cell-based; settings: same experiment, PBMC
Experimental: PBMCs were isolated from buffy coats (leukopac, PBL) obtained from Lifesouth Community Blood Center (Gainesville, Fla., USA) by Ficoll-Hypaque density gradient centrifugation using Lymphoprep (Axis-Shield, Norway). Briefly, the contents of the buffy coat were diluted to three times its volume in sterile 1×PBS pH 7.4 (Gibco, California, USA). The dilution was layered onto the Lymphoprep in a 2:1 ratio. The sample was then centrifuged for 25 min at room temperature and 250 g. The PBMCs were collected at the interface, washed twice with PBS and centrifuged each time for 10 min at 4° C. and 250 g. Cell viability was assessed by trypan blue exclusion. […]
Experimental pelleted cells were incubated for 30 min at 4° C. with antibodies and washed with staining buffer (PBS+2% BSA+0.1% Na azide). […] Quantitation was carried out using FCS Express (version 3, De Novo Software, Los Angeles, Calif.) by gating for lymphocytes based on forward and side scatter properties followed by analysis of the percentages of positively stained quadrants. 50,000 cells were analyzed for each sample and isotype-specific immunoglobulin controls were run for each fluorochrome. […]

MCF7 cells [2] = experiment: Cellular uptake and inhibition of cellular cathepsins, treated cells then lysed, cathepsin D/E substrate; assay type: cell-based
Experimental: MCF7 cells were cultured in Dulbecco's Modified Eagle Medium (DMEM, Invitrogen) containing 10% fetal bovine serum (FBS, HyClone, Logan, Utah), in a humidified atmosphere containing 5% CO2 at 37° C. Briefly, MCF7 cells were seeded into 24-well plates. […] After 1 h incubation the medium was removed and the cells were trypsinized for 10 min, before being collected by centrifugation and lysed with NP-40 lysis buffer (1% NP-40, 50 mM NaOAc, pH 4.0). The lysate (50 μL) from each well was incubated at 37° C. with 10 μM Mca-[…]Dnp)-D-Arg-NH2 (the same substrate used for cathepsin D and E in other assays) in 50 mM NaOAc (pH 4.0, total volume 100 μL). The reaction was monitored by measuring the increase in fluorescence (λex=320 nm, λem=405 nm).
After this time, cells were washed, lysed and then the protease activity of the lysate was measured with a fluorogenic cathepsin D/E substrate (see FIG. 9A).

cathepsin D = target: T1, cathepsin D (Homo sapiens, UniProt P07339); assay type: biochemical; settings: 10 μM
T1 construct: Reaction Biology Corp. (ran the assay)
T1 sequence (P07339 65-412): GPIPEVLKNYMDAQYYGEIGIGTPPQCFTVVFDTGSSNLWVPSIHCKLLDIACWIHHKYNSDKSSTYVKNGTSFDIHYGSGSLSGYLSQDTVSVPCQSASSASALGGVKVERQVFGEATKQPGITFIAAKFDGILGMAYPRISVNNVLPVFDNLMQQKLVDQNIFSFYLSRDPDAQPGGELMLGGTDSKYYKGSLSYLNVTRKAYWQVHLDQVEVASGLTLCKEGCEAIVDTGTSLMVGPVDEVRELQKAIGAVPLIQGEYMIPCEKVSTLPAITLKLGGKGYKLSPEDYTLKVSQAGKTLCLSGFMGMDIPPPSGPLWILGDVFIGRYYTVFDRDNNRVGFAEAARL
Experimental: (§1) After incubation at room temperature for 10-15 min, the substrate was added, after which fluorescence at each relevant Ex/Em wavelength was measured every 5 min for 2 h. The substrate alone in the reaction buffer served as background. […] Each enzyme assay was performed in duplicate by Reaction Biology Corp. (Malvern, Pa.).
(§2) Assays were carried out by Reaction Biology Corp. (Malvern, Pa.). Enzyme activity (in %), calculated as above, was used to determine IC50 values with non-linear regression in GraphPad Prism (GraphPad Software, Inc., La Jolla, Calif.).

cathepsin E = target: T2, cathepsin E (Homo sapiens, UniProt P14091); experiment: Protease inhibition screen and dose-response assay; assay type: biochemical; settings: 10 μM
T2 construct: Reaction Biology Corp. (ran the assay)
T2 sequence (P14091 54-396): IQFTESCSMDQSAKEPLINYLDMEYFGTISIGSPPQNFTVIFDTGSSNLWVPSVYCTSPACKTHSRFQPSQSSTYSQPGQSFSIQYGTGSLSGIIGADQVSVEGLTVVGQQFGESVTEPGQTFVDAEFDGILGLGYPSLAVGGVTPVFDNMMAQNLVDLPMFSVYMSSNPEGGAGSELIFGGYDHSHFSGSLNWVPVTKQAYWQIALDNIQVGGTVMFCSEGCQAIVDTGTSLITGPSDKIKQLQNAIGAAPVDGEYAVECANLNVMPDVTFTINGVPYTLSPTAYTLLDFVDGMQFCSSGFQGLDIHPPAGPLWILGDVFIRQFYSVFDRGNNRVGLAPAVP
Experimental: as §1, §2

[3] = tested on: TH cells induced by allogeneic activated DC; experiment: Allogeneic mixed lymphocyte reaction, DCs and TH cells from different donors; assay type: cell-based, human; settings: allogeneic MLR
[4] = Solubility in DMSO for dilution series; assay type: physicochemical
MCF7 cells [5] = settings: literature (Zaidi et al. 2007); cited from earlier work

With COC(=O)[C@@H]1CCCN1C(=O)[C@@H](Cc1ccccc1)N(C)C(=O)[C@H](C)NC(=O)[C@@H](NC(=O)C[C@H](O)[C@H](CC(C)C)NC(=O)[C@H](CC(N)=O)NC(=O)[C@H](CC(C)C)NC(=O)[C@H](OC(=O)[C@@H](OC(=O)[C@H](C(C)C)N(C)C)C(C)C)C(C)C)[C@@H](C)O [Compound 1, grassystatin A] (NMe2Val-[Hiv][dHiv]LN[Sta]TA[dNMeF]P-OMe) the T cell viability [1] was “unaffected”, the “ability to enter cells” value (MCF7 cells [2]; MCF7 cells, inferred from cellular vs lysate IC50) was “more efficiently enter cells than pepstatin A” and the “inhibitory activity in protease panel” value (cathepsin D) was “active”. For the same molecule, the “inhibitory activity in protease panel” value (cathepsin E) was “active” and the DC stimulated proliferation [3] was “no effect”.
In the case of CCC(C)C(O)C(=O)NC(CC(C)C)C(=O)N(C)C(CCC(N)=O)C(=O)NC(CC(C)C)C(O)CC(=O)NC(C(=O)NCC(=O)N(C)C(Cc1ccccc1)C(=O)N1CCCC1C(=O)OC)C(C)CC (centres unmarked) [Compound 3, grassystatin C] (X1-L[NMeQ][X2]IG[NMeF]P-OMe; configuration not given here), the “solubility in DMSO” value [4] is reported as “insoluble”.
For CC(C)CC(=O)N[C@H](C(=O)N[C@H](C(=O)N[C@@H](CC(C)C)[C@@H](O)CC(=O)N[C@@H](C)C(=O)N[C@@H](CC(C)C)[C@@H](O)CC(=O)O)C(C)C)C(C)C [pepstatin A, reference compound] (Isovaleryl-VV[Sta]A[Sta]-OH), the “apparent IC50 in a cellular system” value (MCF7 cells [2]; MCF7 cells treated 1 h, lysate protease activity) is given as “fairly similar” and the cell permeability (MCF7 cells [5]) is given as “poor cell permeability”.
